In this assay the target is T1, recombinant His-tag Y220C p53 DBD protein (Homo sapiens, UniProt P04637, Y220C).
T1 construct: recombinant His-tag Y220C p53 DBD protein (amino acids #˜94-312)
The assay can be described thus: In vitro DNA binding activity assay (TR-FRET): binding of His-tag Y220C p53 DBD to biotin-labeled consensus DNA. As to conditions: for Y220C SC150 (μM): SC150 = concentration to increase DNA binding by […], His-tag Y220C p53 DBD, biotin-labeled consensus DNA; for SC150 (μM): concentration to increase DNA binding by […], incubated at either 27° C. or 29° C. for 60 min. It counts as biochemical. In general terms: In TR-FRET formats the signal depends on donor and acceptor labels being close together.

Structures are written as SMILES.

For the compound `COCC1(n2ccc(C(=O)NCc3nc(-c4cc5c(N[C@@H]6CCNC[C@@H]6F)cccc5n4CC(F)(F)F)no3)c2)CC1` [Compound 475B, N-{[3-(4-{[(3S,4R)-3-fluoropiperidin-4-yl]amino}-1-(2,2,2-trifluoroethyl)-1H-indol-2-yl)-1,2,4-oxadiazol-5-yl]methyl}-1-[1-(methoxymethyl)cyclopropyl]-1H-pyrrole-3-carboxamide], the “Y220C SC150 (μM)” value is “* (* = 0 μM ≤ SC150 < 0.1 μM)”.
Same read-out and setting: with `CN1CC[C@@H](Nc2cccc3c2cc(-c2nc(CNC(=O)c4ccccc4)no2)n3CC(F)(F)F)[C@@H](F)C1` (racemic) [Compound 276B, (+/−)-N-{[5-(4-{[(3R,4S)-3-fluoro-1-methylpiperidin-4-yl]amino}-1-(2,2,2-trifluoroethyl)-1H-indol-2-yl)-1,2,4-oxadiazol-3-yl]methyl}benzamide] the entry was “* (* = 0 μM ≤ SC150 < 0.1 μM)”.
Same read-out and setting: for `CN1CC[C@@H](Nc2cccc3c2cc(-c2noc(CNC(=O)c4ccn(C5CC(F)(F)C5)c4)n2)n3CC(F)(F)F)[C@@H](F)C1` [Compound 451B, 1-(3,3-difluorocyclobutyl)-N-{[3-(4-{[(3S,4R)-3-fluoro-1-methylpiperidin-4-yl]amino}-1-(2,2,2-trifluoroethyl)-1H-indol-2-yl)-1,2,4-oxadiazol-5-yl]methyl}-1H-pyrrole-3-carboxamide] the value was “* (* = 0 μM ≤ SC150 < 0.1 μM)”.
For the compound `CN1CCC(Nc2cccc3c2cc(-c2ccc(CNC4CCCC4)cc2)n3CC(F)(F)F)CC1` [Compound 40A, 2-{4-[(cyclopentylamino)methyl]phenyl}-N-(1-methylpiperidin-4-yl)-1-(2,2,2-trifluoroethyl)-1H-indol-4-amine], the “SC150 (μM)” value is reported as “++++ (++++ = 10 μM ≤ SC150 < 35 μM)”.
Take `CO[C@H]1CCN(c2nc(C(=O)NCc3nc(-c4cc5c(N[C@@H]6CCN(C)C[C@@H]6F)cccc5n4CC(F)(F)F)no3)cs2)C1` [Compound 523B, N-{[3-(4-{[(3S,4R)-3-fluoro-1-methylpiperidin-4-yl]amino}-1-(2,2,2-trifluoroethyl)-1H-indol-2-yl)-1,2,4-oxadiazol-5-yl]methyl}-2-[(3S)-3-methoxypyrrolidin-1-yl]-1,3-thiazole-4-carboxamide]: the “Y220C SC150 (μM)” value is “* (* = 0 μM ≤ SC150 < 0.1 μM)”.
The same measure, in the same setting: for `CN1CC[C@@H](Nc2cccc3c2cc(-c2noc(CNC(=O)c4cn(C(C)(C)CF)cn4)n2)n3CC(F)(F)F)[C@@H](F)C1` [Compound 342B, N-{[3-(4-{[(3S,4R)-3-fluoro-1-methylpiperidin-4-yl]amino}-1-(2,2,2-trifluoroethyl)-1H-indol-2-yl)-1,2,4-oxadiazol-5-yl]methyl}-1-(1-fluoro-2-methylpropan-2-yl)-1H-imidazole-4-carboxamide] the value was “* (* = 0 μM ≤ SC150 < 0.1 μM)”; for `CN1CC[C@@H](Nc2cccc3c2cc(-c2nc(CNC(=O)C4CC4)cs2)n3CC(F)(F)F)[C@@H](F)C1` (racemic) [Compound 89B, N-{[2-(4-{[(3S,4R)-3-fluoro-1-methylpiperidin-4-yl]amino}-1-(2,2,2-trifluoroethyl)-1H-indol-2-yl)-1,3-thiazol-4-yl]methyl}cyclopropanecarboxamide], “**** (**** = 1 μM ≤ SC150 < 10 μM)”; for `CN1CC[C@@H](Nc2cccc3c2cc(-c2noc(CNC(=O)c4ccn(CCF)c4)n2)n3CC(F)(F)F)[C@@H](F)C1` [Compound 205B, N-{[3-(4-{[(3S,4R)-3-fluoro-1-methylpiperidin-4-yl]amino}-1-(2,2,2-trifluoroethyl)-1H-indol-2-yl)-1,2,4-oxadiazol-5-yl]methyl}-1-(2-fluoroethyl)-1H-pyrrole-3-carboxamide], “* (* = 0 μM ≤ SC150 < 0.1 μM)”.
The same measure, in the same setting: for `Cc1c[nH]c2ccc(C(=O)NCc3nc(-c4cc5c(N[C@@H]6CCN(C)C[C@@H]6F)cccc5n4CC(F)(F)F)no3)cc12` [Compound 266B, N-{[3-(4-{[(3S,4R)-3-fluoro-1-methylpiperidin-4-yl]amino}-1-(2,2,2-trifluoroethyl)-1H-indol-2-yl)-1,2,4-oxadiazol-5-yl]methyl}-3-methyl-1H-indole-5-carboxamide] the value was “* (* = 0 μM ≤ SC150 < 0.1 μM)”.
Take `CN1CC[C@@H](Nc2cccc3c2cc(-c2noc(CNC(=O)c4cnn(C5(C)CC5)c4)n2)n3CC(F)(F)F)[C@@H](F)C1` [Compound 448B, N-{[3-(4-{[(3S,4R)-3-fluoro-1-methylpiperidin-4-yl]amino}-1-(2,2,2-trifluoroethyl)-1H-indol-2-yl)-1,2,4-oxadiazol-5-yl]methyl}-1-(1-methylcyclopropyl)-1H-pyrazole-4-carboxamide]: the “Y220C SC150 (μM)” value is on record as “* (* = 0 μM ≤ SC150 < 0.1 μM)”.
The same measure, in the same setting: for `CN1CC[C@@H](Nc2cccc3c2cc(-c2noc(CNC(=O)c4ccn(C)c4)n2)n3CC(F)(F)F)[C@@H](F)C1` [Compound 181B, N-{[3-(4-{[(3S,4R)-3-fluoro-1-methylpiperidin-4-yl]amino}-1-(2,2,2-trifluoroehyl)-1H-indol-2-yl)-1,2,4-oxadiazol-5-yl]methyl}-1-methyl-1H-pyrrole-3-carboxamide] the value was “* (* = 0 μM ≤ SC150 < 0.1 μM)”; for `CN1CC[C@@H](Nc2cccc3c2cc(-c2noc(CNC(=O)[C@@H]4C[C@@H]4c4ccccc4)n2)n3CC(F)(F)F)[C@@H](F)C1` [Compound 207B, (1R,2S)-N-{[3-(4-{[(3S,4R)-3-fluoro-1-methylpiperidin-4-yl]amino}-1-(2,2,2-trifluoroethyl)-1H-indol-2-yl)-1,2,4-oxadiazol-5-yl]methyl}-2-phenylcyclopropane-1-carboxamide], “** (** = 0.1 μM ≤ SC150 < 0.5 μM)”; for `CN1CC[C@H](Nc2cccc3c2cc(-c2noc(CNC(=O)C4CC4)n2)n3CC(F)(F)F)[C@H](F)C1` [Compound 174B, N-{[3-(4-{[(3R,4S)-3-fluoro-1-methylpiperidin-4-yl]amino}-1-(2,2,2-trifluoroethyl)-1H-indol-2-yl)-1,2,4-oxadiazol-5-yl]methyl}cyclopropanecarboxamide], “* (* = 0 μM ≤ SC150 < 0.1 μM)”.
Same read-out and setting: for `CN1CC[C@@H](Nc2cccc3c2cc(-c2noc(CNC(=O)c4ccc5c(ccn5C)c4)n2)n3CC(F)(F)F)[C@@H](F)C1` [Compound 259B, N-{[3-(4-{[(3S,4R)-3-fluoro-1-methylpiperidin-4-yl]amino}-1-(2,2,2-trifluoroethyl)-1H-indol-2-yl)-1,2,4-oxadiazol-5-yl]methyl}-1-methyl-1H-indole-5-carboxamide] the value was “* (* = 0 μM ≤ SC150 < 0.1 μM)”.
Still for that read-out and setting: with `CCn1cccc1C(=O)NCc1nc(-c2cc3c(N[C@@H]4CCN(C)C[C@@H]4F)cccc3n2CC(F)(F)F)no1` [Compound 534B, 1-ethyl-N-{[3-(4-{[(3S,4R)-3-fluoro-1-methylpiperidin-4-yl]amino}-1-(2,2,2-trifluoroethyl)-1H-indol-2-yl)-1,2,4-oxadiazol-5-yl]methyl}-1H-pyrrole-2-carboxamide] the entry was “* (* = 0 μM ≤ SC150 < 0.1 μM)”; with `CN1CC[C@@H](Nc2cccc3c2cc(-c2noc(CNC(=O)c4cn(CC(F)F)cn4)n2)n3CC(F)(F)F)[C@@H](F)C1` [Compound 310B, 1-(2,2-difluoroethyl)-N-{[3-(4-{[(3S,4R)-3-fluoro-1-methylpiperidin-4-yl]amino}-1-(2,2,2-trifluoroethyl)-1H-indol-2-yl)-1,2,4-oxadiazol-5-yl]methyl}-1H-imidazole-4-carboxamide], “* (* = 0 μM ≤ SC150 < 0.1 μM)”; with `COc1cc(S(C)(=O)=O)ccc1NCc1nnc(-c2cc3c(N[C@H]4CCN(C)C[C@H]4F)cccc3n2CC(F)(F)F)s1` (racemic) [Compound 27B, (+/−)-N-[(3R,4S)-3-fluoro-1-methylpiperidin-4-yl]-2-(5-{[(4-methanesulfonyl-2-methoxyphenyl)amino]methyl}-1,3,4-thiadiazol-2-yl)-1-(2,2,2-trifluoroethyl)-1H-indol-4-amine], “** (** = 0.1 μM ≤ SC150 < 0.5 μM)”.
As for `CNC(=O)c1ccc(-c2cc3c(NC4CCS(=O)(=O)CC4)cccc3n2CC(F)(F)F)cc1` [Compound 5A, 4-{4-[(1,1-dioxo-1λ^6-thian-4-yl)amino]-1-(2,2,2-trifluoroethyl)-1H-indol-2-yl}-N-methylbenzamide], the “SC150 (μM)” value is recorded as “++++ (++++ = 10 μM ≤ SC150 < 35 μM)”.
With `CN1CC[C@H](Nc2cccc3c2cc(-c2nnc(CNC(=O)c4ccccc4)o2)n3CC(F)(F)F)[C@H](F)C1` (racemic) [Compound 118B, (+/−)-N-{[5-(4-{[(3R,4S)-3-fluoro-1-methylpiperidin-4-yl]amino}-1-(2,2,2-trifluoroethyl)-1H-indol-2-yl)-1,3,4-oxadiazol-2-yl]methyl}benzamide], the “Y220C SC150 (μM)” value is recorded as “** (** = 0.1 μM ≤ SC150 < 0.5 μM)”.
For the compound `CN1CC[C@@H](Nc2cccc3c2cc(-c2noc(CNC(=O)c4cc5ccccn5n4)n2)n3CC(F)(F)F)[C@@H](F)C1` [Compound 216B, N-{[3-(4-{[(3S,4R)-3-fluoro-1-methylpiperidin-4-yl]amino}-1-(2,2,2-trifluoroethyl)-1H-indol-2-yl)-1,2,4-oxadiazol-5-yl]methyl}pyrazolo[1,5-a]pyridine-2-carboxamide], the “Y220C SC150 (μM)” value is on record as “* (* = 0 μM ≤ SC150 < 0.1 μM)”.
With `O=C(NCc1ccc(-c2cc3c(NC4CCS(=O)(=O)CC4)cccc3n2CC(F)(F)F)cc1)Nc1ccccc1` [Compound 19A, 3-[(4-{4-[(1,1-dioxo-1λ^6-thian-4-yl)amino]-1-(2,2,2-trifluoroethyl)-1H-indol-2-yl}phenyl)methyl]-1-phenylurea], the “SC150 (μM)” value was “+ (+ = 0 μM ≤ SC150 < 2 μM)”.
On the same count and under the same terms, with `CN1CC[C@H](Nc2cccc3c2cc(-c2ccc(CNC4CC4)cc2)n3CC(F)(F)F)[C@H](F)C1` (racemic) [Compound 42A, (+/−)-2-{4-[(cyclopropylamino)methyl]phenyl}-N-[(3R,4S)-3-fluoro-1-methylpiperidin-4-yl]-1-(2,2,2-trifluoroethyl)-1H-indol-4-amine] the entry was “++++ (++++ = 10 μM ≤ SC150 < 35 μM)”.
